According to patent US6008189A, “Intravaginal preparation containing physiologically active peptide” (Teikoku Seiyaku Kabushiki Kaisha, priority 1993, dated 1999):

How the values were obtained:
Type in all cases: in vivo, rat
[1] = system: Ovariectomized female Wistar rats; assay: Experiment 7: serum calcium reduction, effect of pH of the solution in the suppository; conditions: citric acid and S-970, 20 μg intravaginal
Description: (§1) An intravaginal suppository was administered into the rat's vagina, and the blood was collected periodically (2, 4 and 6 hours after administration of the test preparation).
(§2) The serum was separated, and the calcium level in the serum was determined by using a kit for determination of calcium (Calcium C Test Wako; manufactured by Wako Pure Chemical Industries, Ltd.) (n=3).
(§3) In the same manner as in Experiment 1, each intravaginal suppository was administered to the rat's vagina, and the blood was collected periodically (2, 4 and 6 hours after administration of intravaginal suppository), and the calcium level in the serum thereof was determined (n=3).

[2] = system: Ovariectomized female Wistar rats; assay: Experiment 1: serum calcium reduction after intravaginal suppository, sucrose fatty acid ester plus citric acid versus each alone; conditions: 20 μg intravaginal
Description: To the mixture was added a commercially available base for intravaginal preparation; Witepsol S-55 (which is prepared from Witepsol E-85 so as to give a final intravaginal suppository having a melting point of 36.5° C., manufactured by Hils Co., Ltd., former Diamit Novel Co., Ltd) which was homogenized by previously warming and stirring thereof so as to give an intravaginal suppository with the total weight of 5.00 g. […] The mixture was poured into a tube (inside diameter: about 3 mm) made of teflon at about 40° C., cooled to solidify, and taken out from the tube. The solidified mixture was cut into pieces (weight: 50 mg) to give intravaginal suppositories for rats containing human calcitonin (20 μg/each). There were also obtained two kinds of intravaginal suppositories prepared by adding citric acid (50 mg) only, and prepared by adding a sucrose fatty acid ester (100 mg) only, likewise. There were obtained intravaginal suppositories containing only human calcitonin without citric acid nor a sucrose fatty acid ester, likewise, which are used as control.
as §1, §2

[3] = system: Ovariectomized female Wistar rats; assay: Experiment 3: serum calcium reduction, effect of various sucrose fatty acid esters; conditions: with citric acid, 20 μg intravaginal
Description: as §1, §2
In the same manner, there were prepared various sucrose fatty acid esters having the same HLB value but being combined with a different fatty acid (Table B), and four kinds of intravaginal suppositories for rats were prepared by using each 100 mg of sucrose fatty acid ester.
(§4) In the same manner as in Experiment 1, each intravaginal suppository was administered to the rat's vagina, and the blood was collected periodically (2, 4 and 6 hours after administration of intravaginal suppository), and the calcium level in the serum thereof was determined (n=4).

[4] = system: Ovariectomized female Wistar rats; assay: Experiment 6: serum calcium reduction, effect of organic acid concentration; conditions: pH 3.5, S-970 100 mg per 5.00 g, 20 μg intravaginal
Description: as §1, §2, §3

[5] = system: Ovariectomized female Wistar rats; assay: Experiment 2: serum calcium reduction, effect of various suppository bases; conditions: S-970 and citric acid, 20 μg intravaginal
Description: as §1, §2, §4

[6] = system: Ovariectomized female Wistar rats; assay: Experiment 5: serum calcium reduction, sucrose fatty acid ester with various organic acids; conditions: 20 μg intravaginal
Description: as §1, §2
In the same manner as in Experiment 1, each intravaginal suppository was administered to the rat's vagina, and the blood was collected periodically (2, 4 and 6 hours after administration of intravaginal suppository), and the calcium level in the serum thereof was determined (n=5).

[7] = system: Ovariectomized female Wistar rats; assay: Experiment 4: serum calcium reduction, effect of sucrose fatty acid ester concentration; conditions: sucrose fatty acid ester (S-970) 2 w/w % of suppository; citric acid 100 mg per 5.00 g; 20 μg intravaginal; 2 hr
Description: as §1, §2
Human calcitonin (2 mg) was precisely measured, and thereto were added citric acid (100 mg) and Ryoto-Sugar Ester S-970 (50 mg, 100 mg or 400 mg), and the mixture was mixed well.
In the same manner as in Experiment 1, each intravaginal suppository was administered to the rat's vagina, and the blood was collected periodically (2 and 4 hours after administration of intravaginal suppository), and the calcium level in the serum thereof was determined (n=3).

Human calcitonin was tested, and the “Reduction rate (%) of calcium level in the serum” value ([1]; pH of the solution in suppository 3.0, 2 hr) was 11.0%, the “Reduction rate (%) of calcium level in the serum” value ([1]; pH of the solution in suppository 3.0, 4 hr) was 22.0% and the “Reduction rate (%) of calcium level in the serum” value ([1]; pH of the solution in suppository 3.0, 6 hr) was 8.7%. For the same substance, the “Reduction rate (%) of calcium level in the serum” value ([1]; pH of the solution in suppository 3.5, 2 hr) was 9.4%, the “Reduction rate (%) of calcium level in the serum” value ([1]; pH of the solution in suppository 3.5, 6 hr) was 8.8% and the “Reduction rate (%) of calcium level in the serum” value ([1]; pH of the solution in suppository 4.0, 2 hr) was 9.4%. For the same substance, the “Reduction rate (%) of calcium level in the serum” value ([1]; pH of the solution in suppository 4.5, 2 hr) was 9.5%, the “Reduction rate (%) of calcium level in the serum” value ([1]; pH of the solution in suppository 4.5, 6 hr) was 9.1% and the “Reduction rate (%) of calcium level in the serum” value ([1]; pH of the solution in suppository 5.0, 6 hr) was 2.7%. The “Reduction rate (%) of calcium level in the serum” value ([1]; pH of the solution in suppository 5.5, 2 hr) was 8.1%, the “Reduction rate (%) of calcium level in the serum” value ([1]; pH of the solution in suppository 5.5, 6 hr) was 4.3% and the “Reduction rate (%) of calcium level in the serum” value ([2]; Control: suppository with human calcitonin only, no citric acid nor ester, 2 hr) was 2.6%. For the same substance, the “Reduction rate (%) of calcium level in the serum” value ([2]; Control: suppository with human calcitonin only, no citric acid nor ester, 4 hr) was 2.2%, the “Reduction rate (%) of calcium level in the serum” value ([2]; Control: suppository with human calcitonin only, no citric acid nor ester, 6 hr) was 3.8% and the “Reduction rate (%) of calcium level in the serum” value ([2]; suppository with citric acid only, 2 hr) was 9.5%. The “Reduction rate (%) of calcium level in the serum” value ([2]; suppository with citric acid only, 4 hr) was 8.0%, the “Reduction rate (%) of calcium level in the serum” value ([2]; suppository with citric acid only, 6 hr) was 5.7% and the “Reduction rate (%) of calcium level in the serum” value ([3]; Ryoto-Sugar Ester (S-570), HLB 5, stearic acid, 6 hr) was 12.0%. For the same substance, the “Reduction rate (%) of calcium level in the serum” value ([3]; Ryoto-Sugar Ester L-595 + L-1695 3:2, HLB 9, lauric acid, 2 hr) was 11.0%, the “Reduction rate (%) of calcium level in the serum” value ([3]; Ryoto-Sugar Ester L-595 + L-1695 3:2, HLB 9, lauric acid, 6 hr) was 9.7% and the “Reduction rate (%) of calcium level in the serum” value ([3]; Ryoto-Sugar Ester P-070 + P-1670 4:5, HLB 9, palmitic acid, 2 hr) was 8.2%. The “Reduction rate (%) of calcium level in the serum” value ([3]; Ryoto-Sugar Ester S-370 + S-1670 5:6, HLB 9, stearic acid, 2 hr) was 6.9%, the “Reduction rate (%) of calcium level in the serum” value ([3]; Ryoto-Sugar Ester S-970 1:0 (control), HLB 9, stearic acid, 2 hr (Table 4)) was 6.3% and the “Reduction rate (%) of calcium level in the serum” value ([3]; Ryoto-Sugar Ester S-970 1:0 (control), HLB 9, stearic acid, 6 hr (Table 4)) was 11.0%. For the same substance, the “Reduction rate (%) of calcium level in the serum” value ([4]; citric acid 1 w/w % of suppository, 6 hr) was 9.2%, the “Reduction rate (%) of calcium level in the serum” value ([4]; citric acid 2 w/w % of suppository, 6 hr) was 8.2% and the “Reduction rate (%) of calcium level in the serum” value ([4]; citric acid 5 w/w % of suppository, 6 hr) was 7.5%. For the same substance, the “Reduction rate (%) of calcium level in the serum” value ([4]; citric acid 10 w/w % of suppository, 4 hr) was 19.0%, the “Reduction rate (%) of calcium level in the serum” value ([4]; citric acid 10 w/w % of suppository, 6 hr) was 5.0% and the “Reduction rate (%) of calcium level in the serum” value ([5]; base Cacao butter, 6 hr) was 8.3%. For the same substance, the “Reduction rate (%) of calcium level in the serum” value ([5]; base Witepsol S-55, 6 hr) was 13.0%, the “Reduction rate (%) of calcium level in the serum” value ([5]; base Witepsol W-35, 2 hr) was 6.6% and the “Reduction rate (%) of calcium level in the serum” value ([6]; organic acid Citric acid (pH 4) with Ryoto-Sugar Ester R-970, 6 hr) was 8.4%. For the same substance, the “Reduction rate (%) of calcium level in the serum” value ([6]; organic acid Lactic acid (pH 4) with Ryoto-Sugar Ester R-970, 2 hr) was 17.0%, the “Reduction rate (%) of calcium level in the serum” value ([6]; organic acid Lactic acid (pH 4) with Ryoto-Sugar Ester R-970, 6 hr) was 5.4% and the “Reduction rate (%) of calcium level in the serum” value ([6]; organic acid Malic acid (pH 4) with Ryoto-Sugar Ester R-970, 4 hr) was 13.0%. For the same substance, the “Reduction rate (%) of calcium level in the serum” value ([6]; organic acid Malic acid (pH 4) with Ryoto-Sugar Ester R-970, 6 hr) was 7.0%, the “Reduction rate (%) of calcium level in the serum” value ([6]; organic acid Tartaric acid (pH 4) with Ryoto-Sugar Ester R-970, 4 hr) was 8.0% and the “Reduction rate (%) of calcium level in the serum” value ([6]; organic acid Tartaric acid (pH 4) with Ryoto-Sugar Ester R-970, 6 hr) was 3.4%. For the same substance, the “Reduction rate (%) of calcium level in the serum” value [7] was 8.0%.
